Biological target: hFXR (Homo sapiens (Human), UniProt Q96RI1)
Assay: In Vitro FXR Assay (TK)
Format: cell-based
Conditions: CV-1 cells transfected with hFXR, hRXR, TK-ECRE-luc and pCMX-YFP; incubated 18 hrs; luminescence; maximum efficacy <25% of the Fexarmine control classified as '+'
In short: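 Luminescence from a TK-ECRE-luc reporter was read after 18 h of compound exposure in CV-1 cells. These cells were grown in charcoal-stripped FBS medium and transiently transfected with hFXR, hRXR and YFP expression plasmids.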

hFXR, sequence (Q96RI1 whole entry): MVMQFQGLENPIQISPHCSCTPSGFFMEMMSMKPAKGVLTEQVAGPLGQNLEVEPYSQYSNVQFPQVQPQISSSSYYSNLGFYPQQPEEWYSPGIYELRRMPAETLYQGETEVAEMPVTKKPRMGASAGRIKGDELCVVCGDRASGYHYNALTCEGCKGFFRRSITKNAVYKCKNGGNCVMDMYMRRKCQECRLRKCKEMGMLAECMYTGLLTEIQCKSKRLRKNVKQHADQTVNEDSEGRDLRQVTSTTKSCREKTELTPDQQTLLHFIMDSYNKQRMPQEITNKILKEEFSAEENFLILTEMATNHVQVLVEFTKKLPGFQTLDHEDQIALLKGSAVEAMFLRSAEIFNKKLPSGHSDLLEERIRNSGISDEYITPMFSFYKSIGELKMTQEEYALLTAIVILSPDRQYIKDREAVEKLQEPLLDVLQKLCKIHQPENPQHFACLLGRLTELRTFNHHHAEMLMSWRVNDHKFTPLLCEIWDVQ
hFXR, sequence (P19793 whole entry partner): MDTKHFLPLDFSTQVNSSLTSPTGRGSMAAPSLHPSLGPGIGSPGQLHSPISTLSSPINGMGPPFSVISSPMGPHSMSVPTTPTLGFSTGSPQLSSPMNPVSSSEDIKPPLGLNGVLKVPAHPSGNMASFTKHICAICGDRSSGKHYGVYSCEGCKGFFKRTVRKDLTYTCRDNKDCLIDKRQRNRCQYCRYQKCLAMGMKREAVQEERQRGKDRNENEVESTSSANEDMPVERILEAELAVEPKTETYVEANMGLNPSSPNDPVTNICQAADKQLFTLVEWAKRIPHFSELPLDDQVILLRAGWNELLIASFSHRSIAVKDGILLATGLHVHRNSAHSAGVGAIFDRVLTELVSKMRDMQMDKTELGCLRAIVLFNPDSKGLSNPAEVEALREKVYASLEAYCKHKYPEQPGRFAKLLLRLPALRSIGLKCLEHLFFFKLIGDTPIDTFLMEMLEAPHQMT

Row | EC50 | Structure (SMILES)
1 | ≤ 250 nM | CCn1cc(-c2cccc(N(C[C@H]3CC[C@H](c4ccc(OC)c(C)c4)CC3)C(=O)[C@H]3CC[C@H](O)CC3)c2)cn1 [Compound 2.02, trans-N-(3-(1-Ethyl-1H-pyrazol-4-yl)phenyl)-4-hydroxy-N-((trans-4-(4-methoxy-3-methylphenyl)cyclohexyl)methyl)cyclohexanecarboxamide]
2 | ≤ 250 nM | COc1ccc([C@H]2CC[C@H](CN(c3cccc(-c4cnn(C5CC5)c4)c3)C(=O)[C@H]3CC[C@H](O)CC3)CC2)cc1Cl [Compound 5.03, trans-N-((trans-4-(3-Chloro-4-methoxyphenyl)cyclohexyl)methyl)-N-(3-(1-cyclopropyl-1H-pyrazol-4-yl)phenyl)-4-hydroxycyclohexanecarboxamide]
3 | 250 to 1000 nM | COc1ccc([C@H]2CC[C@H](CN(c3cc(-c4cnn(C5CC5)c4)cc(C)n3)C(=O)[C@H]3CC[C@H](O)CC3)CC2)cc1C [Compound 5.26, trans-N-(4-(1-cyclopropyl-1H-pyrazol-4-yl)-6-methylpyridin-2-yl)-4-hydroxy-N-((trans-4-(4-methoxy-3-methylphenyl)cyclohexyl)methyl)cyclohexanecarboxamide]
4 | 250 to 1000 nM | COc1ccc([C@H]2CC[C@H](CN(c3cccc(-n4ccc(C)n4)c3)C(=O)[C@H]3CC[C@H](O)CC3)CC2)cc1C [Compound 5.01, trans-4-Hydroxy-N-((trans-4-(4-methoxy-3-methylphenyl)cyclohexyl)methyl)-N-(3-(3-methyl-1H-pyrazol-1-yl)phenyl)cyclohexanecarboxamide]
5 | 250 to 1000 nM | COc1ccc([C@H]2CC[C@H](CN(c3cccc(-n4cc(C)cn4)c3)C(=O)[C@H]3CC[C@H](O)CC3)CC2)cc1C [Compound 1, trans-4-Hydroxy-N-((trans-4-(4-methoxy-3-methylphenyl)cyclohexyl)methyl)-N-(3-(4-methyl-1H-pyrazol-1-yl)phenyl)cyclohexanecarboxamide]
6 | 250 to 1000 nM | COc1ccc(C23CCC(CN(c4cccc(-c5cnn(C6CC6)c5)c4)C(=O)[C@H]4CC[C@H](N)CC4)(CC2)CC3)cc1C [Compound 7.01, trans-4-Amino-N-(3-(1-cyclopropyl-1H-pyrazol-4-yl)phenyl)-N-((4-(4-methoxy-3-methylphenyl)bicyclo[2.2.2]octan-1-yl)methyl)cyclohexanecarboxamide]
7 | ≥ 1000 nM | COc1ccc([C@H]2CC[C@H](CN(c3cccc(-c4cnn(CCN(C)C)c4)c3)C(=O)[C@H]3CC[C@H](O)CC3)CC2)cc1C [Compound 3.06, trans-N-(3-(1-(2-(Dimethylamino)ethyl)-1H-pyrazol-4-yl)phenyl)-4-hydroxy-N-((trans-4-(4-methoxy-3-methylphenyl)cyclohexyl)methyl)cyclohexanecarboxamide]
8 | ≤ 250 nM | COc1ccc(C23CCC(CN(c4cc(-c5cnn(C(C)C)c5)ccn4)C(=O)[C@H]4CC[C@H](O)CC4)(CC2)CC3)cc1C [Compound 2.09]
9 | ≤ 250 nM | COc1ccc([C@H]2CC[C@H](CN(c3cccc(-c4cnn(C(F)(F)F)c4)c3)C(=O)[C@H]3CC[C@H](O)CC3)CC2)cc1C [Compound 2.06, trans-4-Hydroxy-N-((trans-4-(4-methoxy-3-methylphenyl)cyclohexyl)methyl)-N-(3-(1-(trifluoromethyl)-1H-pyrazol-4-yl)phenyl)cyclohexanecarboxamide]
10 | ≤ 250 nM | COc1ccc([C@H]2CC[C@H](CN(c3cc(-c4cnn(C5CC5)c4)ccn3)C(=O)[C@H]3CC[C@H](O)CC3)CC2)cc1C#N [Compound 5.13, trans-N-((trans-4-(3-Cyano-4-methoxyphenyl)cyclohexyl)methyl)-N-(4-(1-cyclopropyl-1H-pyrazol-4-yl)pyridin-2-yl)-4-hydroxycyclohexanecarboxamide]
11 | ≥ 1000 nM | Cn1ccc2cc([C@H]3CC[C@H](CN(c4cccc(-c5cnn(C6CC6)c5)c4)C(=O)[C@H]4CC[C@H](O)CC4)CC3)ncc21 [Compound 5.21, trans-N-(3-(1-Cyclopropyl-1H-pyrazol-4-yl)phenyl)-4-hydroxy-N-((trans-4-(1-methyl-1H-pyrrolo[2,3-c]pyridin-5-yl)cyclohexyl)methyl)cyclohexanecarboxamide]
12 | 250 to 1000 nM | COc1ccc([C@H]2CC[C@H](CN(c3cc(-c4cnn(C(C)C)c4)ccn3)C(=O)[C@H]3CC[C@H](O)CC3)CC2)nc1C#N [Compound 5.20, trans-N-((trans-4-(6-Cyano-5-methoxypyridin-2-yl)cyclohexyl)methyl)-4-hydroxy-N-(4-(1-isopropyl-1H-pyrazol-4-yl)pyridin-2-yl)cyclohexanecarboxamide]
13 | ≤ 250 nM | COc1ncc([C@H]2CC[C@H](CN(c3cc(-c4cnn(C(C)C)c4)ccn3)C(=O)[C@H]3CC[C@H](O)CC3)CC2)cc1Cl [Compound 5.30, trans-N-((trans-4-(5-Chloro-6-methoxypyridin-3-yl)cyclohexyl)methyl)-4-hydroxy-N-(4-(1-isopropyl-1H-pyrazol-4-yl)pyridin-2-yl)cyclohexanecarboxamide]

From patent US10961198B2, “Farnesoid X receptor agonists and uses thereof” (Metacrine, Inc., priority 2017, dated 2021)
